The results in this text go back to patent US12156889B2, “Methods of administering mesenchymal stem cells activated by cytokines for enhancing immunosuppression” (Rutgers, The State University of New Jersey, priority 2012, dated 2024).

In one assay the test system is CD4+ T cell blasts. The experiment in a line: T cell blast proliferation in co-culture with MSCs (3H-thymidine incorporation). In kind it is cell-based, mouse. As to conditions: for induction of immunosuppression by MSCs with recombinant cytokines: 20 ng/ml each, MSC + T cell blasts or MSC + A1.1 cells, 1:20; for T cell proliferation after MSC treatment with low-concentration cytokines: 2 ng/ml each, 12 hr, then 1:20 MSC:T cells. The method, then:
FIG. 1. is a graph showing that immunosuppression by MSCs is induced by proinflammatory cytokines. Cloned MSCs were supplemented with the indicated combinations of recombinant cytokines (20 ng/ml each) for 8 hours, then co-cultured with CD4+ T cell blasts at a 1:20 ratio (MSC:T cells), and proliferation assessed after an additional 8 hours. Values represent means±SD of five wells from a representative of three experiments with different clones. * p<0.001.
(§1) FIGS. 9A, 9B, 9C, 9D, 9E, 9F and 9G. (FIG. 9A). Cloned MSCs were first treated with the indicated combinations of recombinant cytokines IFNγ, TNFα, IL-17A (2 ng/ml each) for 12 hr, then cocultured with CD4^+ T cell blasts at a 1:20 ratio (MSC:T cells), and proliferation was assessed by 3H-thymidine incorporation after an additional 12 hr. (FIG. 9B). The mRNA expression of IL-17 receptor family members in MSCs or Raw 264.7 (Macrophages) were examined by RT-PCR. NC: No RT. (FIG. 9C). Surface expression of IL-17RA was detected by immunofluoresence or flow cytometry in cloned MSCs. (FIGS. 9D and 9E). MSCs were first treated with IFNγ and TNFα with or without IL-17A (10 ng/ml), IFNγ and TNFα were supplemented at different cytokine concentrations, for 12 hr, and then cocultured with CD4^+ T cell blasts (FIG. 9D) or T cell hybridoma A1.1 cells (FIG. 9E) at a ratio of 1:20 for 12 hr. T cell proliferation was measured by 3H-Tdr incorporation. (FIG. 9F). MSCs were first treated with IFNγ and TNFα (2 ng/ml) with graded concentrations of IL-17A, for 12 hr, and then cocultured with T cell hybridoma A1.1 cells at a ratio of 1:10 for 12 hr. T cell proliferation was measured by 3H-thymidine incorporation. (FIG. 9G). MSCs were cocultured with fresh C57BL/6 splenocytes plus anti-CD3, anti-CD28, and antibodies against IL-17A, at a 1:20 or 1:40 ratio (MSCs:splenocytes), for 48 hr, and then cell proliferation was assessed by 3H-thymidine incorporation. Proliferation values represent means±SEM of three wells from a representative of three experiments.
T cell blasts were generated from CD4^+ T cells purified by negative selection with […] T cell subset isolation kits (R&D Systems). Cells (1×10^6 cells/ml) were activated by plastic-bound anti-CD3 and soluble anti-CD 28 for 48 hours, then cultured with IL-2 (200 U/ml) alone for 48 hours. All T cell cultures were maintained in RPMI-1640 medium supplemented with 10% heat-inactivated FBS, 2 mM glutamine, 100 U/ml penicillin, 100 μ·g/ml streptomycin, and […] (complete medium).
Since most reported studies of immunosuppression by MSCs are based on their effects on T cell proliferation and cytokine production, the effect of MSCs was first examined on the IL-2-driven proliferation of T cell blasts. Fresh CD4^+ T cell blasts were generated from splenocytes by activation with anti-CD3 followed by expansion with IL-2 for several days (Devadas, et al. (2006) Immunity 25:237-247; Radvanyi, et al. (1996) Cell Immunol. 170:260-273). T cell blasts were added at a 1:20 ratio (MSC:T cells) along with IL-2 (200 U/ml). Cell proliferation was assessed by ^3H-Tdr incorporation after 8 hours. […] MSCs also had no effect on the proliferation of T hybridoma A1.1 cells. These T cells blasts and T hybridoma cells, however, produce no cytokines unless reactivated through the TCR (Fotedar, et al. (1985) J. Immunol. 135(5):3028-33). Thus, in the absence of T cell cytokines, MSCs were unable to suppress T cell proliferation.
The effect of IFNγ was then tested directly by adding isolated recombinant IFNγ (20 ng/ml) instead of activated splenocyte supernatant to the mixed co-cultures of MSC+ T cell blasts or MSC+A1.1 cells. […] Therefore, induction of the immunosuppressive function of MSCs by anti-CD3-activated splenocyte supernatant may be due to IFNγ acting in concert with either TNFα; IL-1α; or IL-1β on the MSCs. […]

Assay [1] has as its system peripheral blood mononuclear cell. The experiment in a line: Peripheral blood mononuclear cell proliferation with human MSCs. In kind it is cell-based. The following applies: side-by-side comparison mouse and human MSCs. How it is done:
In the present study, with T cell activation or when exogenous inflammatory cytokines are added, the T cells first enter cell cycle arrest and then die within 24 hours. It was also observed that this apoptosis was dependent on NO, since T cell apoptosis was not observed when iNOS inhibitors were used. Apoptosis was also absent when iNOS^−/− or IFNγ R1^−/− MSCs were used. Therefore, NO-induced cell cycle arrest and apoptosis of T cells are part of the mechanism of immunosuppression mediated by inflammatory cytokine-activated MSCs. Differences between species in inflammatory cytokine-induced expression of iNOS has been noted in macrophages (Schneemann & Schoedon. 2002) Nat. Immunol. 3(2):102). […] Thus, the roles of IDO and NO in the inhibition of T cell proliferation by MSCs from mouse and human were analyzed in a side-by-side comparison.

For a further assay, the system named is splenocytes. The experiment in a line: Anti-CD3-activated splenocyte proliferation in co-culture with MSCs. Format: cell-based, mouse. The following applies: for effect on immunosuppression by MSCs: indomethacin 10 μM, anti-IL-10 20 μg/ml, anti-TGFβ 20 μg/ml, 1-MT 1 mM; for splenocyte proliferation in MSC co-culture with iNOS inhibitor: MSCs + splenocytes + anti-CD3. How it is done: as §1, with “(FIG. 9A).” left out
To examine the possibility that cytokines induce the immunosuppressive capacity of MSCs, these culture conditions were reproduced by combining MSCs and fresh splenocytes at graded ratios in the presence of anti-CD3. […] The immunosuppressive capacity of MSC clones generated from different mouse strains was also examined.
To identify the mechanism through which immunosuppression by cytokine-exposed MSCs is effected, the response of anti-CD3-activated splenocytes co-cultured with MSCs (1:20, MSC:splenocytes) in a […] system was examined in various configurations.
Nitric oxide (NO) at high concentrations is known to inhibit T cell responses. It diffuses quickly from its source, but the concentration of the active form drops off within about 100 μm.
Proliferation assay—To assay T cell proliferation, 0.5 μCi of 3H-thymidine was added to each well of 96-well plates 6 hr before termination of the cultures by freezing. Plates were then thawed, cells were harvested, and incorporated 3H-Tdr was assessed with a Wallac Microbeta scintillation counter (Perkin-Elmer, Waltham, MA).

The next assay deals with F1 (C57BL/6xC3H) mice. The experiment in a line: Graft-versus-host disease (GvHD) model.
The next assay deals with iNOS. In words: iNOS mRNA in MSCs by real-time PCR. The following applies: 20 ng/ml each. In kind it is cell-based, mouse. The method, then:
Real-Time PCR. RNA was isolated from cell pellets using an RNEASY Mini Kit. First-strand cDNA synthesis was performed using SENSISCRIPT RT Kit with random hexamer primers (all kits from Qiagen, Valencia, Calif.). mRNA of the genes of interest were quantified by real-time PCR (MX-4000 from Stratagene, La Jolla, Calif.) using SYBR Green Master Mix (Applied Biosystems, Foster City, Calif.). Total amount of mRNA was normalized to endogenous β-actin mRNA. Primers sequences for iNOS were: forward, 5′-CAGCTGGGCTGTACAAACCTT-3′ (SEQ ID NO:1); reverse, 5′-CATTGGAAGTGAAGCGTTTCG-3′ (SEQ ID NO:2). Other primers were from the RT2 PROFILER™ PCR Array Mouse Chemokines & Receptors kit (Superarray, Frederick, Md.).
Accordingly, it was contemplated that MSCs could upregulate their expression of iNOS and produce NO after exposure to these cytokines. […] […] At 12 hours post-stimulation, the level of iNOS mRNA was more than 7 times greater than β actin message, indicative of extremely high expression.

Experimental for F1 (C57BL/6xC3H) mice: Recipient mice (C57BL/6xC3H, F1) were lethally irradiated and injected i.v. with C57BL/6 bone marrow cells plus spleenocytes. On days 3 and 7 after bone marrow transplantation, recipients were administered with the indicated MSCs. For some wild-type MSC groups, L-NMMA, anti-IFNγ or a 3-antibody cocktail against TNFα, IL-1α, and IL-1β, (3 Abs) were injected i.p. Survival was monitored daily for 12 weeks.
GvHD Induction and Modulation by MSCs. C57BL/6×C3H F1 mice at 8-weeks old were lethally irradiated (13 Gy) and after 24 hours were infused by tail vein injection with nucleated bone marrow cells (5×10^6) and splenocytes (5×10^6) isolated from C57BL/6 parent mice. On days 3 and 7 following bone marrow transplantation, the recipients were administrated with 0.5×10^6 MSCs derived from C57BL/6 wild-type, IFNγ R1^−/−, or iNOS^−/− mice via the tail vein. Some wild-type MSC groups were also injected i.p. with the iNOS inhibitor, NG-monomethyl L-arginine (L-NMMA, 500 μg/mouse), anti-IFNγ (400 μg/mouse), or a cocktail of three antibodies against TNFα, IL-1α and IL-1β (200 μg each/mouse) daily for 7 days starting immediately after the first MSC administration. As negative controls, the F1 mice were injected with F1 bone marrow cells. Mice were observed daily for GvHD signs (wasting, ruffled hair, and hunched back) and euthanized upon becoming moribund, thus marking survival time. […]

As for “GM-CSF: Granulocyte-macrophage colony-stimulating factor”, in the assay with CD4+ T cell blasts, the “induction of immunosuppression by MSCs with recombinant cytokines” value (from here on “induction of immunosuppression by MSCs”) is “no effect”.

As for `Cn1cc(CC(N)C(=O)O)c2ccccc21` (racemic) [1-MT, 1-methyl-DL-tryptophan], the “effect on inhibition of peripheral blood mononuclear cell proliferation by human MSCs” value in assay [1] was “reversed”. Also, the “effect on immunosuppression by MSCs” value in the assay with splenocytes is on record as “no effect”.

Turning to `COC(=O)[C@@H](N)CCCNC(=N)N[N+](=O)[O-]` [L-NAME], the “splenocyte proliferation in MSC co-culture with iNOS inhibitor” value in the assay with splenocytes is listed as “same effect”.

Regarding `COc1ccc2c(c1)c(CC(=O)O)c(C)n2C(=O)c1ccc(Cl)cc1` [indomethacin, Indomethacin], the “effect on immunosuppression by MSCs” value with splenocytes was “no effect”.

Take `CNC(=N)NCCC[C@H](N)C(=O)O` [L-NMMA, N G-monomethyl-L-arginine]: the “effect on protection by MSC (histology)” value with F1 (C57BL/6xC3H) mice (14 days after bone marrow transplantation) was “almost completely reversed”. Moreover, in the assay with F1 (C57BL/6xC3H) mice (i.p. daily for 7 days after wild-type MSC infusion), the “effect on MSC-mediated protection from GvHD (survival)” value is “significant reversal”. Besides, in the assay with splenocytes, the “splenocyte proliferation in MSC co-culture with iNOS inhibitor” value is listed as “completely restored”. Further, the “effect on immunosuppression by mouse MSCs” value in the assay with splenocytes (side-by-side comparison mouse and human MSCs) is “completely reversed”.

B1: TNFα: recombinant mouse tumor necrosis factor-alpha (protein)
chain: LRSSSQNSSDKPVAHVVANHQVEEQLEWLSQRANALLANGMDLKDNQLVVPADGLYLVYSQVLFKGQGCPDYVLLTHTVSRFAISYQEKVNLLSAVKSPCPKDTPEGAELKPWYEPIYLGGVFQLEKGDQLSAEVNLPKYLDFAESGQVYFGVIAL
B1: in the assay on iNOS, the “iNOS mRNA upregulation in MSCs by recombinant cytokines” value is “ineffective”. Further, the “T cell proliferation after MSC treatment with low-concentration cytokines” value in the assay on CD4+ T cell blasts is recorded as “cannot induce immunosuppression”.

B2: IL-6: Interleukin-6 (protein, UniProt P08505 25-211, looked up)
Interleukin-6: FPTSQVRRGDFTEDTTPNRPVYTTSQVGGLITHVLWEIVEMRKELCNGNSDCMNNDDALAENNLKLPEIQRNDGCYQTGYNQEICLLKISSGLLEYHSYLEYMKNNLKDNKKDKARVLQRDTETLIHIFNQEVKDLHKIVLPTPISNALLTDKLESQKEWLRTKTIQFILKSLEEFLKVTLRSTRQT
Regarding B2, the “induction of immunosuppression by MSCs” value with CD4+ T cell blasts is “no effect”.

B3: IFNβ: type I IFN, printed as IFNα or β (protein, UniProt P01575 22-182, looked up)
Interferon beta: INYKQLQLQERTNIRKCQELLEQLNGKINLTYRADFKIPMEMTEKMQKSYTAFAIQEMLQNVFLVFRNNFSSTGWNETIVVRLLDELHQQTVFLKTVLEEKQEERLTWEMSSTALHLKSYYWRVQRYLKLMKYNSYAWMVVRAEIFRNFLIIRRLTRNFQN
Turning to B3, in the assay with splenocytes, the “MSC-mediated immunosuppression in MSC+splenocyte+anti-CD3 system” value is “strikingly inhibited”.

B4: IFNγ: recombinant mouse interferon-gamma (protein)
chain: HGTVIESLESLNNYFNSSGIDVEEKSLFLDIWRNWQKDGDMKILQSQIISFYLRLFEVLKDNQAISNNISVIESHLITTFFSNSKAKKDAFMSIAKFEVNNPQVQRQAFNELIRVVHQLLPESSLRKRKRSRC
For the molecule B4, in the assay with iNOS, the “iNOS mRNA upregulation in MSCs by recombinant cytokines” value is recorded as “ineffective”. Further, in the assay with CD4+ T cell blasts, the “T cell proliferation after MSC treatment with low-concentration cytokines” value was “cannot induce immunosuppression” and the “induction of immunosuppression by MSCs” value is reported as “did not induce immunosuppression”.
